Data published in ChEMBL document CHEMBL2046285, “Synthesis of novel imbricatolic acid analogues via insertion of N-substituted piperazine at C-15/C-19 positions, displaying glucose uptake stimulation in L6 skeletal muscle cells” (2012).

System: L6
Test: Antidiabetic activity in rat L6 cells assessed as stimulation of glucose uptake at 10 uM
Assay type: functional

## C=C1CC[C@@H]2[C@](C)(CCC[C@]2(C)C(=O)N2CCN(c3ccc(F)cc3)CC2)[C@H]1CC[C@H](C)CCOC(C)=O
  Activity: 22.45%

## C=C1CC[C@@H]2[C@](C)(CCC[C@]2(C)C(=O)N2CCN(c3cccc(OC)c3)CC2)[C@H]1CC[C@H](C)CCOC(C)=O
  Activity: 54.73%

## C=C1CC[C@@H]2[C@](C)(CCC[C@]2(C)C(=O)N2CCN(C/C=C/c3ccccc3)CC2)[C@H]1CC[C@H](C)CCOC(C)=O
  Activity: 16.3%

## C=C1CC[C@@H]2[C@](C)(CCC[C@]2(C)C(=O)N2CCN(c3ccc(C)cc3)CC2)[C@H]1CC[C@H](C)CCOC(C)=O
  Activity: 2.21%

## C=C1CC[C@@H]2[C@](C)(CCC[C@]2(C)C(=O)N2CCN(c3ccc(Cl)cc3)CC2)[C@H]1CC[C@H](C)CCOC(C)=O
  Activity: 40.79%

## C=C1CC[C@@H]2[C@](C)(CCC[C@]2(C)C(=O)N2CCN(c3ccccc3)CC2)[C@H]1CC[C@H](C)CCOC(C)=O
  Activity: 24.14%

## C=C1CC[C@@H]2[C@](C)(CCC[C@]2(C)C(=O)N2CCN(C)CC2)[C@H]1CC[C@H](C)CCOC(C)=O
  Activity: -10.16%

## C=C1CC[C@@H]2[C@](C)(CCC[C@]2(C)C(=O)N2CCN(C(C)=O)CC2)[C@H]1CC[C@H](C)CCOC(C)=O
  Activity: -1.96%

## C=C1CC[C@@H]2[C@](C)(CCC[C@]2(C)C(=O)OC)[C@H]1CC[C@H](C)CCOC(=O)CN1CCN(c2ccc(F)cc2)CC1
  Activity: 28.86%

## C=C1CC[C@@H]2[C@](C)(CCC[C@]2(C)C(=O)OC)[C@H]1CC[C@H](C)CCOC(=O)CN1CCN(c2cccc(OC)c2)CC1
  Activity: 40.9%

## C=C1CC[C@@H]2[C@](C)(CCC[C@]2(C)C(=O)OC)[C@H]1CC[C@H](C)CCOC(=O)CN1CCN(C/C=C/c2ccccc2)CC1
  Activity: 18.58%

## C=C1CC[C@@H]2[C@](C)(CCC[C@]2(C)C(=O)OC)[C@H]1CC[C@H](C)CCOC(=O)CN1CCN(c2ccc(C)cc2)CC1
  Activity: 15.27%

## C=C1CC[C@@H]2[C@](C)(CCC[C@]2(C)C(=O)OC)[C@H]1CC[C@H](C)CCOC(=O)CN1CCN(c2ccc(Cl)cc2)CC1
  Activity: 39.55%

## C=C1CC[C@@H]2[C@](C)(CCC[C@]2(C)C(=O)OC)[C@H]1CC[C@H](C)CCOC(=O)CN1CCN(c2ccccc2)CC1
  Activity: 29.51%

## C=C1CC[C@@H]2[C@](C)(CCC[C@]2(C)C(=O)OC)[C@H]1CC[C@H](C)CCOC(=O)CN1CCN(C)CC1
  Activity: -3.75%

## C=C1CC[C@@H]2[C@](C)(CCC[C@]2(C)C(=O)OC)[C@H]1CC[C@H](C)CCOC(=O)CN1CCN(C(C)=O)CC1
  Activity: -5.9%

## C=C1CC[C@@H]2[C@](C)(CCC[C@]2(C)C(=O)O)[C@H]1CC[C@H](C)CCO [IMBRICATOLIC ACID]
  Activity: 34.41%

## CN(CCOc1ccc(CC2SC(=O)NC2=O)cc1)c1ccccn1 (stereo not drawn) [ROSIGLITAZONE]
  Activity: 54.5%
